Reference: ChEMBL document CHEMBL1143878, “The design and synthesis of novel alpha-ketoamide-based p38 MAP kinase inhibitors” (Bioorg Med Chem Lett, 2008)

Legend:
THP-1 = assay: Inhibition of LPS-induced TNFalpha production in human THP1 cells; assay type: functional, cell-based
[1] = Clearance in rat at 10 mg/kg, iv; assay type: ADME, organism-based; set-up: dose 10 mg/kg, route intravenous; conditions: in vivo
[2] = AUC in rat at 30 mg/kg, po; assay type: ADME, organism-based; set-up: dose 30 mg/kg, route oral; conditions: plasma
[3] = Bioavailability in rat at 30 mg/kg, po; assay type: ADME, organism-based; conditions: in vivo
[4] = Half life in rat at 30 mg/kg, po; assay type: ADME, organism-based; set-up: dose 30 mg/kg, route oral; conditions: in vivo
[5] = Volume of distribution at steady state in rat at 10 mg/kg, iv; assay type: ADME, organism-based; set-up: dose 10 mg/kg, route intravenous; conditions: in vivo, read-out: Vdss
[6] = Cmax in rat at 30 mg/kg, po; assay type: ADME, organism-based; set-up: dose 30 mg/kg, route oral; conditions: in vivo
[7] = molecular target: T1, Mitogen-activated protein kinase 14 (Homo sapiens, UniProt Q16539); assay: Inhibition of human p38-alpha kinase phosphorylation
T1 sequence (Q16539 whole entry): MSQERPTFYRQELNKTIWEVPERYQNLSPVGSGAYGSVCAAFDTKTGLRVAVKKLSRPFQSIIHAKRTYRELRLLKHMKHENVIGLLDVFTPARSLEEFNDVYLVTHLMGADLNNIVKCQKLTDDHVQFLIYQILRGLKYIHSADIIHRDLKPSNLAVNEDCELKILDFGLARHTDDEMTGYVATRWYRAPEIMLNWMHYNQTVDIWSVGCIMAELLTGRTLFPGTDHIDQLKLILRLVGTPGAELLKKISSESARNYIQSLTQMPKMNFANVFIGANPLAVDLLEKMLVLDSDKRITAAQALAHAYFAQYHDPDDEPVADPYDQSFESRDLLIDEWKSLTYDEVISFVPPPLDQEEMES

[8] = molecular target: T1, Mitogen-activated protein kinase 14; assay: Inhibition of human p38-alpha kinase
[9] = Tmax in rat at 30 mg/kg, po; assay type: ADME, organism-based; set-up: dose 30 mg/kg, route oral; conditions: in vivo

SMILES	IC50 (THP-1)	further results
Cc1cccc(-n2nc(C(C)(C)C)cc2NC(=O)C(=O)c2ccc(OCCN3CCOCC3)c3ccccc23)c1	340 nM	
Cc1ccc(-n2nc(C(C)(C)C)cc2NC(=O)/C(=N\O)c2ccc(OCCN3CCOCC3)c3ccccc23)cc1	23 nM	clearance [1]: 15 mL/min/kg; AUC [2]: 36000 ng·h/mL; bioavailability [3]: 100%; half-life [4]: 1.4 h; Vd [5]: 1.9 L/kg; Cmax [6]: 4500 ng/mL; IC50 [7]: 150 nM; IC50 [8]: 23 nM; Tmax [9]: 1 h
Cc1ccc(-n2nc(C(C)(C)C)cc2NC(=O)C(=O)c2ccc(OCCN3CCOCC3)c3ccc(Cl)cc23)cc1	2600 nM	
CC(C)(C)c1cc(NC(=O)C(=O)c2ccc(OCCN3CCOCC3)c3ccccc23)n(-c2cccc(F)c2)n1	440 nM	
Cc1ccc(-n2nc(C(C)(C)C)cc2NC(=O)C(O)c2ccc(OCCN3CCOCC3)c3ccccc23)cc1 (stereo not given)	970 nM	
CC(C)(C)c1cc(NC(=O)C(=O)c2ccc(OCCN3CCOCC3)c3ccccc23)n(-c2ccccc2)n1	2100 nM	
CO/N=C(\C(=O)Nc1cc(C(C)(C)C)nn1-c1ccc(C)cc1)c1ccc(OCCN2CCOCC2)c2ccccc12	1500 nM	
CC(C)(C)c1cc(NC(=O)C(=O)c2ccc(OCCN3CCOCC3)c3ccccc23)[nH]n1	1500 nM	
Cc1ccc(-n2nc(C(C)(C)C)cc2NC(=O)C(=O)c2ccc(OCCN3CCOCC3)c3ccccc23)cc1C	450 nM	
Cc1ccc(-n2nc(C(C)(C)C)cc2NC(=O)C(=O)c2ccc(OCCN3CCOCC3)c3ccccc23)cc1	440 nM	IC50 [7]: 310 nM; IC50 [8]: 320 nM
Cc1ccc(-n2nc(C(C)(C)C)cc2NC(=O)Cc2ccc(OCCN3CCOCC3)c3ccccc23)cc1	1400 nM	
Cc1ccc(-n2nc(C(C)(C)C)cc2NC(=O)c2n[nH]c3ccccc23)cc1	2900 nM	
Cn1nc(C(C)(C)C)cc1NC(=O)C(=O)c1ccc(OCCN2CCOCC2)c2ccccc12		IC50 [7]: 300 nM; IC50 [8]: 150 nM
Cc1ccc(-n2nc(C(C)(C)C)cc2NC(=O)C(=O)c2ccc(OCCN3CCOCC3)c3ccccc23)cc1F	220 nM	
Cc1ccccc1-n1nc(C(C)(C)C)cc1NC(=O)C(=O)c1ccc(OCCN2CCOCC2)c2ccccc12	1500 nM	
Cc1ccc(-n2nc(C(C)(C)C)cc2NC(=O)Nc2ccc(OCCN3CCOCC3)c3ccccc23)cc1 [DORAMAPIMOD]	13 nM	
O=c1ncn2nc(Sc3ccc(F)cc3F)ccc2c1-c1c(Cl)cccc1Cl [NEFLAMAPIMOD]	39 nM	
C[S+]([O-])c1ccc(-c2nc(-c3ccc(F)cc3)c(-c3ccncc3)[nH]2)cc1 (stereo not given) [SB-203580]	16 nM	
